From patent US11000033B2, “Ketone or oxime compound, and herbicide” (NISSAN CHEMICAL CORPORATION, priority 2014, dated 2021)

Tests used:
Assay type in all cases: in vivo
Amaranthus retroflexus = test: Test Example 4: herbicidal effect by soil treatment (symbol N); conditions: application herbicide amount 320 g/ha
Procedure, shortened: (§1)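 Seeds were sown in sterilized diluvial soil, covered with about 1.5 cm of soil, and the soil surface was sprayed with a water-diluted emulsion of the compound at a predetermined rate. Plants grew in a greenhouse at 25° C. to 30° C.; effects were scored visually 3 weeks after application.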

wheat [1] = test: Test Example 5: effect on crop by foliage application, plastic box (symbol e); conditions: 320 g/ha, 3 weeks after application
Procedure, shortened: (§2)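 Plants were raised from seed in a greenhouse (25° C. to 30° C.) after sowing in a plastic box of sterilized diluvial soil.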

Setaria viridis [2] = test: Test Example 5: herbicidal effect by foliage application, plastic box (symbol G); conditions: 320 g/ha, 3 weeks after application
Procedure, shortened: (§3)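 Herbicide, formulated as an emulsion and diluted in water, is sprayed onto the aerial parts of 14-day seedlings. These were grown at 25° C. to 30° C. in sterilized diluvial soil; effects are graded after 3 weeks.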

Chenopodium album = test: Test Example 5: herbicidal effect by foliage application, plastic box (symbol O); conditions: 320 g/ha, 3 weeks after application
Procedure, shortened: as §3

Setaria viridis [3] = test: Test Example 4: herbicidal effect by soil treatment (symbol G); conditions: application herbicide amount 320 g/ha
Procedure, shortened: as §1

beet = test: Test Example 5: effect on crop by foliage application, plastic box (symbol f); conditions: 320 g/ha, 3 weeks after application
Procedure, shortened: as §2

Leptochloa chinensis = test: Test Example 3: herbicidal effect by foliage application, Wagner pot (symbol D); conditions: application herbicide amount 320 g/ha
Procedure, shortened: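 The compound, formulated as an emulsion and diluted with water to a predetermined rate, is applied uniformly to leaves of two-week-old seedlings growing in submerged alluvial soil at 25–30 °C. Rice is included. Each plant is assessed 3 weeks later using defined criteria.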

corn = test: Test Example 5: effect on crop by foliage application, plastic box (symbol c); conditions: 320 g/ha, 3 weeks after application
Procedure, shortened: as §2

Alopecurus myosuroides = test: Test Example 5: herbicidal effect by foliage application, plastic box (symbol J); conditions: 320 g/ha, 3 weeks after application
Procedure, shortened: as §3

[4] = system: Echinochloa oryzacola Vasing.; test: Test Example 2: herbicidal activity, application during weed generation in submerged conditions (symbol A); conditions: Table 23; application herbicide amount 320 g/ha; grade 0-5 by criteria of Test Example 1
Procedure, shortened: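 Treatment timing was the one- to two-leaf stage, with diluted emulsifiable compound dropped onto the paddy water (depth 4 cm) over alluvial soil. All three species grew from a mixed sowing in a 25° C. to 30° C. greenhouse. Injury was judged by eye 3 weeks on.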

wheat [5] = test: Test Example 4: effect on crop by soil treatment (symbol e); conditions: application herbicide amount 320 g/ha
Procedure, shortened: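 Sterilized diluvial soil, spot sowing, ~1.5 cm soil cover; greenhouse 25–30° C.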

rice plant = test: Test Example 5: effect on crop by foliage application, plastic box (symbol b); conditions: 320 g/ha, 3 weeks after application
Procedure, shortened: as §2

Structure (SMILES) | N: Amaranthus retroflexus, herbicidal effect grade (Amaranthus retroflexus) | e: wheat, effect on crop grade (wheat [1]) | G: Setaria viridis, herbicidal effect grade (Setaria viridis [2]) | O: Chenopodium album, herbicidal effect grade (Chenopodium album) | G: Setaria viridis, herbicidal effect grade (Setaria viridis [3]) | f: beet, effect on crop grade (beet) | herbicidal effect on D (Leptochloa chinensis), grade 0-5 (Leptochloa chinensis) | c: corn, effect on crop grade (corn) | J: Alopecurus myosuroides, herbicidal effect grade (Alopecurus myosuroides) | Herbicidal effect grade, A: Echinochloa oryzacola Vasing. [4] | e: wheat, effect on crop grade (wheat [5]) | b: directly sowed rice plant, effect on crop grade (rice plant)
Cc1cc(C)c(C2=C(O)CC(CC(=O)CC3CC3)C2=O)c(C)c1 (stereo not drawn) [2-026] | 0 (Herbicidal ratio of 5% or lower (almost no effect)) | 0 (Herbicidal ratio of 5% or lower (almost no effect)) | 5 (Herbicidal ratio of 90% or more (almost completely withered)) | 0 (Herbicidal ratio of 5% or lower (almost no effect)) | 5 (Herbicidal ratio of 90% or more (almost completely withered)) | 0 (Herbicidal ratio of 5% or lower (almost no effect)) | 4 (Herbicidal ratio of 70% or higher and lower than 90%) | 2 (Herbicidal ratio of 20% or higher and lower than 40%) | 4 (Herbicidal ratio of 70% or higher and lower than 90%) | 4 (Herbicidal ratio of 70% or higher and lower than 90%) | 0 (Herbicidal ratio of 5% or lower (almost no effect)) | 5 (Herbicidal ratio of 90% or more (almost completely withered))
Cc1cc(C)c(C2=C(O)CC(CC(=O)C(C)C)C2=O)c(C)c1 (stereo not drawn) [2-016] | 0 (Herbicidal ratio of 5% or lower (almost no effect)) | 0 (Herbicidal ratio of 5% or lower (almost no effect)) | 5 (Herbicidal ratio of 90% or more (almost completely withered)) | 0 (Herbicidal ratio of 5% or lower (almost no effect)) | 5 (Herbicidal ratio of 90% or more (almost completely withered)) | 0 (Herbicidal ratio of 5% or lower (almost no effect)) | 5 (Herbicidal ratio of 90% or more (almost completely withered)) | 4 (Herbicidal ratio of 70% or higher and lower than 90%) | 5 (Herbicidal ratio of 90% or more (almost completely withered)) | 4 (Herbicidal ratio of 70% or higher and lower than 90%) | 0 (Herbicidal ratio of 5% or lower (almost no effect)) | 5 (Herbicidal ratio of 90% or more (almost completely withered))
CON=C(C)CC1CC(O)=C(c2c(C)cc(C)cc2Br)C1=O (stereo not drawn) [6-038] | 4 (Herbicidal ratio of 70% or higher and lower than 90%) | 3 (Herbicidal ratio of 40% or higher and lower than 70%) | 5 (Herbicidal ratio of 90% or more (almost completely withered)) | 3 (Herbicidal ratio of 40% or higher and lower than 70%) | 4 (Herbicidal ratio of 70% or higher and lower than 90%) | 0 (Herbicidal ratio of 5% or lower (almost no effect)) | 5 (Herbicidal ratio of 90% or more (almost completely withered)) | 5 (Herbicidal ratio of 90% or more (almost completely withered)) | 5 (Herbicidal ratio of 90% or more (almost completely withered)) | 4 (Herbicidal ratio of 70% or higher and lower than 90%) | 1 (Herbicidal ratio of 5% or higher and lower than 20%) | 5 (Herbicidal ratio of 90% or more (almost completely withered))
CON=C(C)CC1CC(O)=C(c2c(C)cc(-c3ccc(C(F)(F)F)cc3)cc2C)C1=O (mixture of isomers) [6-016] | 2 (Herbicidal ratio of 20% or higher and lower than 40%) | 0 (Herbicidal ratio of 5% or lower (almost no effect)) | 5 (Herbicidal ratio of 90% or more (almost completely withered)) | 3 (Herbicidal ratio of 40% or higher and lower than 70%) | 5 (Herbicidal ratio of 90% or more (almost completely withered)) | 0 (Herbicidal ratio of 5% or lower (almost no effect)) | 5 (Herbicidal ratio of 90% or more (almost completely withered)) | 5 (Herbicidal ratio of 90% or more (almost completely withered)) | 1 (Herbicidal ratio of 5% or higher and lower than 20%) | 3 (Herbicidal ratio of 40% or higher and lower than 70%) | 0 (Herbicidal ratio of 5% or lower (almost no effect)) | 5 (Herbicidal ratio of 90% or more (almost completely withered))
CCOC(=O)C(C(=O)C(F)(F)F)C1CC(O)=C(c2c(C)cc(C)cc2C)C1=O (stereo not drawn) [2-010] | 0 (Herbicidal ratio of 5% or lower (almost no effect)) | 0 (Herbicidal ratio of 5% or lower (almost no effect)) | 0 (Herbicidal ratio of 5% or lower (almost no effect)) | 0 (Herbicidal ratio of 5% or lower (almost no effect)) | 0 (Herbicidal ratio of 5% or lower (almost no effect)) | 0 (Herbicidal ratio of 5% or lower (almost no effect)) | 0 (Herbicidal ratio of 5% or lower (almost no effect)) | 0 (Herbicidal ratio of 5% or lower (almost no effect)) | 0 (Herbicidal ratio of 5% or lower (almost no effect)) | 0 (Herbicidal ratio of 5% or lower (almost no effect)) | 0 (Herbicidal ratio of 5% or lower (almost no effect)) | 0 (Herbicidal ratio of 5% or lower (almost no effect))
CON=C(C)CC1CC(O)=C(c2c(C)cc(-c3ccc(C)cc3)cc2C)C1=O (mixture of isomers) [6-018] | 0 (Herbicidal ratio of 5% or lower (almost no effect)) | 2 (Herbicidal ratio of 20% or higher and lower than 40%) | 5 (Herbicidal ratio of 90% or more (almost completely withered)) | 3 (Herbicidal ratio of 40% or higher and lower than 70%) | 5 (Herbicidal ratio of 90% or more (almost completely withered)) | 1 (Herbicidal ratio of 5% or higher and lower than 20%) | 5 (Herbicidal ratio of 90% or more (almost completely withered)) | 5 (Herbicidal ratio of 90% or more (almost completely withered)) | 5 (Herbicidal ratio of 90% or more (almost completely withered)) | 5 (Herbicidal ratio of 90% or more (almost completely withered)) | 0 (Herbicidal ratio of 5% or lower (almost no effect)) | 5 (Herbicidal ratio of 90% or more (almost completely withered))
